In patent US10646498B2, “Composition for preventing, alleviating or treating muscle diseases or improving muscular function” (AAT COSTECH CO., LTD., priority 2015, dated 2020):

What was measured:
p-4EBP1 = p-4EBP1 protein expression in L6 muscle cells (Western blot); assay type: cell-based; settings: fucosterol 1 and 10 μM, FIG. 2
Description: (§1) As muscle cells, L6 myoblasts (ATCC CRL-1458, Manassas, Va., USA) were added to a 6-well plate at a density of 2×10^5 cells/mL together with a Dulbecco's modified Eagle's medium (DMEM; Hyclone) supplemented with 10% fetal bovine serum (FBS; Hyclone, Logan, Utah, USA). […] In this case, a group in which the cells were treated with 0.01% DMSO instead of the sample was used as the control. This procedure was carried out at an interval of 2 days for 6 days to differentiate the cells, and the cells were then dissolved in an NP-40 buffer (ELPIS-Biotech, Daejeon, Korea) containing a proteinase inhibitor cocktail. The cells lysed in the buffer were transferred to a 1.5 ml tube, and centrifuged at 13,000 rpm for 10 minutes to collect only a supernatant. The supernatant was quantified using a Bradford method (Bradford, Bio-Rad Laboratories Inc., Hercules, Calif., USA). The quantified proteins were boiled for 5 minutes, and separated through 10% SDS-PAGE, and the separated proteins were transferred to a nitrocellulose membrane. A p-mTOR primary antibody (Cell Signaling Technology, Beverly, Mass., USA) was diluted with 2.5% bovine serum albumin (BSA) at a ratio of 1:1,000, and reacted with the proteins transferred to the nitrocellulose membrane at room temperature for 20 hours. […]

[1] = test system: Wistar rats with TNF-α-induced muscle atrophy; settings: 300 mg/kg, 1344 h
Description: Five-week-old Wistar rats (Daehan Biolink, Korea) were adapted for one week, and fed 100 ng/g of TNF-α for 2 weeks to induce muscle atrophy. Thereafter, the rats were randomly divided into a total of 6 groups based on the weights thereof, each group consisting of 8 rats, which were then used in this experiment. […] In this case, a group in which TNF-α was added to the same amount of 0.25% carboxymethyl cellulose which the experimental group ingested was used as the control.
After the sample was administered for 8 weeks, muscles were incised from right lower calves of the rats, and weighed using a microbalance (Mettler PE160, USA).

MyoD = MyoD mRNA expression in L6 muscle cells (RT-PCR), muscle differentiation; assay type: cell-based; settings: fucosterol 1 and 10 μM, 6 days, vs 0.01% DMSO control, FIG. 3
Description: (§2) As muscle cells, L6 myoblasts (ATCC) were added to a 6-well plate at a density of 2×10^5 cells/mL together with DMEM (Hyclone) supplemented with 10% FBS (Hyclone). When the cell density reached approximately 80 to 85%, the medium contained in the wells was removed, and the fucosterol isolated and purified in Example 3 was dissolved at concentrations of 1 and 10 μM in DMEM (Hyclone) supplemented with 2% HS (Hyclone), and the cells were treated with the fucosterol to induce myotube differentiation. In this case, a group in which the cells were treated with 0.01% DMSO instead of the sample was used as the control. This procedure was carried out at an interval of 2 days for 6 days to differentiate the cells, and total RNA was isolated using a TRIzol reagent (Invitrogen, Carlsbad, Calif., USA). The isolated total RNA was quantified using NanoDrop 1000 (Thermo Fisher Scientific Inc., MA, USA). 16 μL of the quantified RNA was synthesized into cDNA using Reverse Transcriptase Premix (ELPIS-Biotech) and a PCR machine (Gene Amp PCR System 2700, Applied Biosystems, MA, USA) under conditions of 42° C. and 55 minutes and 70° C. and 15 minutes. […]

atrogin-1 = atrogin-1 mRNA expression in TNF-α-treated L6 muscle cells (RT-PCR), muscle protein degradation; assay type: cell-based; settings: differentiated L6 muscle cells, 50 ng/mL TNF-α, fucosterol 1 and 10 μM, 6 hours, FIG. 6
Description: (§3) As muscle cells, L6 myoblasts (ATCC) were added to a 6-well plate at a density of 2×10^5 cells/mL together with DMEM (Hyclone) supplemented with 10% FBS (Hyclone). When the cell density reached approximately 80 to 85%, the medium contained in the wells was removed, and the cells were treated with DMEM (Hyclone) supplemented with 2% HS (Hyclone) to induce myotube differentiation. Cell differentiation was performed for a total of 6 days while replacing the medium with a fresh medium every 2 days. After the differentiation, the fucosterol isolated and purified in Example 3 was dissolved at concentrations of 1 and 10 μM in DMEM (Hyclone) supplemented with 50 ng/mL of tumor necrosis factor alpha (TNF-α; PeproTech, Rocky Hills, N.J., USA), and the cells were then treated with the fucosterol. After 6 hours, total RNA was isolated using a TRIzol reagent (Invitrogen). The isolated total RNA was quantified using NanoDrop 1000 (Thermo Fisher Scientific Inc., MA, USA). 16 μL of the quantified RNA was synthesized into cDNA using Reverse Transcriptase Premix (ELPIS-Biotech) and a PCR machine (Gene Amp PCR System 2700; Applied Biosystems) under conditions of 42° C. and 55 minutes and 70° C. and 15 minutes. […]

MuRF-1 = MuRF-1 mRNA expression in TNF-α-treated L6 muscle cells (RT-PCR), muscle protein degradation; assay type: cell-based; settings: differentiated L6 muscle cells, 50 ng/mL TNF-α, fucosterol 1 and 10 μM, 6 hours, FIG. 6
Description: as §3

myogenin = myogenin mRNA expression in L6 muscle cells (RT-PCR), muscle differentiation; assay type: cell-based; settings: fucosterol 1 and 10 μM, 6 days, vs 0.01% DMSO control, FIG. 3
Description: as §2

p-p70S6K = p-p70S6K protein expression in L6 muscle cells (Western blot); assay type: cell-based; settings: fucosterol 1 and 10 μM, FIG. 2
Description: as §1

p-mTOR = p-mTOR protein expression in L6 muscle cells (Western blot); assay type: cell-based; settings: fucosterol 10 μM, treated every 2 days for 6 days, vs 0.01% DMSO control, FIG. 1
Description: As muscle cells, L6 myoblasts (ATCC CRL-1458, Manassas, Va., USA) were added to a 6-well plate at a density of 2×10^5 cells/mL together with a Dulbecco's modified Eagle's medium (DMEM; Hyclone) supplemented with 10% fetal bovine serum (FBS; Hyclone, Logan, Utah, USA). […] The supernatant was quantified using a Bradford method (Bradford, Bio-Rad Laboratories Inc., Hercules, Calif., USA). The quantified proteins were boiled for 5 minutes, and separated through 10% SDS-PAGE, and the separated proteins were transferred to a nitrocellulose membrane. […]
Muscle cells were treated with the ultra-high pressure extract of Sargassum fulvellum prepared in Example 1-6, the supercritical fluid extract of Sargassum fulvellum prepared in Example 1-7, the subcritical fluid extract of Sargassum fulvellum prepared in Example 1-8, the ultra-high pressure extract of Sargassum fusiforme prepared in Example 2-6, the supercritical fluid extract of Sargassum fusiforme prepared in Example 2-7, and the subcritical fluid extract of Sargassum fusiforme prepared in Example 2-8 at a concentration of 20 ppm in the same manner as in Example 4. A p-mTOR protein band was chromogenically developed using an ECL Western blotting detection reagent (Amersham, Tokyo, Japan), and a density of the chromogenically developed protein band was measured using a G;BOX EF imaging system (Syngene, Cambridge, UK). […]

C/C=C(\CC[C@@H](C)[C@H]1CC[C@H]2[C@@H]3CC=C4C[C@@H](O)CC[C@]4(C)[C@H]3CC[C@]12C)C(C)C [Fucosterol, (3-beta,24E)-stigmasta-5,24(28)-dien-3-ol]
protein expression level of p-4EBP1 (p-4EBP1): increased | Mean weight of calf muscles [1]: 522.1 ± 30.6 mg | increase in weights of the muscles compared to the control [1]: 25.78% | mRNA expression of MyoD (MyoD): increased | mRNA expression of atrogin-1 (atrogin-1): decreased | mRNA expression of MuRF-1 (MuRF-1): decreased | mRNA expression of myogenin (myogenin): increased | protein expression level of p-p70S6K (p-p70S6K): increased | expression level of p-mTOR (p-mTOR): increased
